The source of these data is patent publication US6399614B1, “1-(N-phenylaminoalkyl)piperazine derivatives substituted at position 2 of the phenyl ring” (Recordati S.A. Chemical and Pharmaceutical Company, priority 1997, dated 2002).

Read-outs that look alike come from different tables or passages of the source.

The test system of experiment [1] is rhythmic bladder voiding contractions. Put plainly: Volume-induced rhythmic bladder voiding contractions in anaesthetized rats. It is filed as in vivo, rat. The following applies: Rattus norvegicus, intravenous; for ED (10 min disappearance of contractions): extrapolated dose inducing 10 min of disappearance of the contractions, anaesthetized rats, read-out: ED10 min; for ED50: extrapolated dose inducing a reduction of the number of contractions >30% in 50% of treated rats, read-out: ED50 (frequency).

For the next experiment, the system named is urinary bladder. Put plainly: Cystometric parameters (cystometrogram) in conscious rats. It is filed as in vivo, rat. The note with it: for BVC after treatment / MP after treatment: mean ± S.E.; for change in vivo at 0.3 mg/kg / change in vivo at 1 mg/kg / change in vivo at 0.1 mg/kg: Rattus norvegicus, iv, 0.25 h, after vs before; for change in vivo at 0.3 mg/kg: i.v. 300 μg/kg; for change in vivo at 1 mg/kg: i.v. 1000 μg/kg; for change in vivo at 0.1 mg/kg: i.v. 100 μg/kg.

What is called ED50 is the dose at which the effect has come halfway, by size or by number of responders.

Consider `COc1ccccc1N1CCN(CCN(C(=O)C2CCCCC2)c2ccccc2)CC1` [Compound A, 1-(N-phenyl-N-cyclohexylcarbonyl-2-aminoethyl)-4-(2-methoxyphenyl)piperazine, reference compound], for which, in experiment [1], the ED (10 min disappearance of contractions) was 0.65 mg/kg and the ED50 was 0.033 mg/kg. In the experiment with urinary bladder (15 min after i.v. 300 μg/kg), the BVC after treatment amounted to 0.87 ± 0.05 mL and the MP after treatment turned out to be 85.6 ± 11.3 mmHg. In the experiment with urinary bladder (15 min after i.v. 1000 μg/kg), this compound came in with a BVC after treatment of 0.97 ± 0.11 mL and an MP after treatment of 84.1 ± 5.2 mmHg. Besides, in the experiment on urinary bladder (read-out: BVC % of change), the change in vivo at 0.3 mg/kg amounted to 7.4% and the change in vivo at 1 mg/kg was found to be 24.4%. Besides, in the experiment with urinary bladder (read-out: MP % of change), the change in vivo at 0.3 mg/kg is -5.5% and the change in vivo at 1 mg/kg was -6.8%. In addition, in the experiment with urinary bladder (conscious rats, i.v.), the “i.v. dose at which a significant increase in BVC was observed” value is 1.0 mg/kg.
On to `O=C(C1CCCCC1)N(CCN1CCN(c2cccc3[nH]ccc23)CC1)c1ccccc1[N+](=O)[O-]` [Example 13, 1-[N-(2-nitrophenyl)-N-cyclohexylcarbonyl-2-aminoethyl]-4-(4-indolyl)piperazine], for which, in experiment [1], the ED (10 min disappearance of contractions) is 0.266 mg/kg and the ED50 is 0.029 mg/kg. In the experiment with urinary bladder (15 min after i.v. 100 μg/kg), the BVC after treatment came to 1.07 ± 0.14 mL and the MP after treatment came to 75.6 ± 13.7 mmHg. In the experiment with urinary bladder (15 min after i.v. 300 μg/kg), this compound returned a BVC after treatment of 0.95 ± 0.12 mL and an MP after treatment of 65.7 ± 13.8 mmHg. In addition, in the experiment on urinary bladder (read-out: BVC % of change), the change in vivo at 0.1 mg/kg is 13.4% and the change in vivo at 0.3 mg/kg came to 30.2%. Further, in the experiment with urinary bladder (read-out: MP % of change), the change in vivo at 0.1 mg/kg is -12.5% and the change in vivo at 0.3 mg/kg was -10.6%.
`COC(=O)c1ccccc1N(CCN1CCN(c2ccccc2OC)CC1)C(=O)C1CCCCC1` [Example 18, 1-[N-(2-methoxycarbonylphenyl)-N-cyclohexylcarbonyl-2-aminoethyl]-4-(2-methoxyphenyl)piperazine]: in experiment [1], the ED (10 min disappearance of contractions) was 0.101 mg/kg and the ED50 was 0.017 mg/kg. Moreover, in the experiment on urinary bladder (15 min after i.v. 100 μg/kg), the BVC after treatment was 0.80 ± 0.09 mL and the MP after treatment worked out at 48.5 ± 4.9 mmHg. In the experiment on urinary bladder (15 min after i.v. 1000 μg/kg), this compound registered a BVC after treatment of 0.89 ± 0.16 mL and an MP after treatment of 79.3 ± 17.0 mmHg. Further, in the experiment with urinary bladder (read-out: BVC % of change), the change in vivo at 0.1 mg/kg turned out to be 33.3% and the change in vivo at 1 mg/kg worked out at 40.3%. Also, in the experiment with urinary bladder (read-out: MP % of change), the change in vivo at 0.1 mg/kg is -34.3% and the change in vivo at 1 mg/kg is -13.5%.
For the compound `COc1ccccc1N1CCN(CCN(C(=O)C2CCCCC2)c2ccccc2[N+](=O)[O-])CC1` [Example 2, 1-[N-(2-nitrophenyl)-N-cyclohexylcarbonyl-2-aminoethyl]-4-(2-methoxyphenyl) piperazine], in experiment [1], the ED (10 min disappearance of contractions) was 0.06 mg/kg and the ED50 is 0.009 mg/kg. For the same compound, in the experiment with urinary bladder (15 min after i.v. 300 μg/kg), the BVC after treatment came to 0.87 ± 0.10 mL and the MP after treatment is 80.4 ± 6.5 mmHg. In the experiment on urinary bladder (15 min after i.v. 1000 μg/kg), this compound showed a BVC after treatment of 0.75 ± 0.10 mL and an MP after treatment of 99.6 ± 11.2 mmHg. In addition, in the experiment with urinary bladder (read-out: BVC % of change), the change in vivo at 0.3 mg/kg amounted to 22.5% and the change in vivo at 1 mg/kg was 21%. Also, in the experiment with urinary bladder (read-out: MP % of change), the change in vivo at 0.3 mg/kg is -15.7% and the change in vivo at 1 mg/kg was -8.6%. In the experiment with urinary bladder (conscious rats, i.v.), the “effect on MP (in words)” value is recorded as “slight, albeit significant, decrease in MP” and the “i.v. dose at which a significant increase in BVC was observed” value was determined as 0.3 mg/kg.
Regarding `COc1ccccc1N1CCN(CCN(C(=O)C2CCCCC2)c2ccccc2OC)CC1` [Example 23, 1-[N-(2-methoxyphenyl)-N-cyclohexylcarbonyl-2-aminoethyl]-4-(2-methoxyphenyl)piperazine], in experiment [1], the ED (10 min disappearance of contractions) is 0.093 mg/kg and the ED50 is 0.018 mg/kg. In the experiment with urinary bladder (15 min after i.v. 300 μg/kg), this compound showed a BVC after treatment of 0.77 ± 0.03 mL and an MP after treatment of 86.4 ± 10.0 mmHg. Further, in the experiment on urinary bladder (15 min after i.v. 1000 μg/kg), the BVC after treatment is 0.89 ± 0.12 mL and the MP after treatment was 61.9 ± 8.5 mmHg. In addition, in the experiment with urinary bladder (read-out: BVC % of change), the change in vivo at 0.3 mg/kg was found to be 54.3% and the change in vivo at 1 mg/kg was 34.5%. Also, in the experiment on urinary bladder (read-out: MP % of change), the change in vivo at 0.3 mg/kg is -7.6% and the change in vivo at 1 mg/kg is -17.1%.
